Laboratory results taken from ChEMBL document CHEMBL5465560, “Selectivity Literature for EUbOPEN Chemogenomic Library” (2024).

What was measured:
[1] = target: Casein kinase I isoform gamma-3 (Homo sapiens) (UniProt Q9Y6M4); experiment: Selectivity interaction (KinomeScan (DiscoverX)) EUB0000045b CSNK1G3
[2] = target: T1, Serine/threonine-protein kinase Nek10 (Homo sapiens) (UniProt Q6ZWH5); experiment: Selectivity interaction (KinomeScan (DiscoverX)) EUB0000695a NEK10; details: at 100 nM
T1 sequence (whole entry): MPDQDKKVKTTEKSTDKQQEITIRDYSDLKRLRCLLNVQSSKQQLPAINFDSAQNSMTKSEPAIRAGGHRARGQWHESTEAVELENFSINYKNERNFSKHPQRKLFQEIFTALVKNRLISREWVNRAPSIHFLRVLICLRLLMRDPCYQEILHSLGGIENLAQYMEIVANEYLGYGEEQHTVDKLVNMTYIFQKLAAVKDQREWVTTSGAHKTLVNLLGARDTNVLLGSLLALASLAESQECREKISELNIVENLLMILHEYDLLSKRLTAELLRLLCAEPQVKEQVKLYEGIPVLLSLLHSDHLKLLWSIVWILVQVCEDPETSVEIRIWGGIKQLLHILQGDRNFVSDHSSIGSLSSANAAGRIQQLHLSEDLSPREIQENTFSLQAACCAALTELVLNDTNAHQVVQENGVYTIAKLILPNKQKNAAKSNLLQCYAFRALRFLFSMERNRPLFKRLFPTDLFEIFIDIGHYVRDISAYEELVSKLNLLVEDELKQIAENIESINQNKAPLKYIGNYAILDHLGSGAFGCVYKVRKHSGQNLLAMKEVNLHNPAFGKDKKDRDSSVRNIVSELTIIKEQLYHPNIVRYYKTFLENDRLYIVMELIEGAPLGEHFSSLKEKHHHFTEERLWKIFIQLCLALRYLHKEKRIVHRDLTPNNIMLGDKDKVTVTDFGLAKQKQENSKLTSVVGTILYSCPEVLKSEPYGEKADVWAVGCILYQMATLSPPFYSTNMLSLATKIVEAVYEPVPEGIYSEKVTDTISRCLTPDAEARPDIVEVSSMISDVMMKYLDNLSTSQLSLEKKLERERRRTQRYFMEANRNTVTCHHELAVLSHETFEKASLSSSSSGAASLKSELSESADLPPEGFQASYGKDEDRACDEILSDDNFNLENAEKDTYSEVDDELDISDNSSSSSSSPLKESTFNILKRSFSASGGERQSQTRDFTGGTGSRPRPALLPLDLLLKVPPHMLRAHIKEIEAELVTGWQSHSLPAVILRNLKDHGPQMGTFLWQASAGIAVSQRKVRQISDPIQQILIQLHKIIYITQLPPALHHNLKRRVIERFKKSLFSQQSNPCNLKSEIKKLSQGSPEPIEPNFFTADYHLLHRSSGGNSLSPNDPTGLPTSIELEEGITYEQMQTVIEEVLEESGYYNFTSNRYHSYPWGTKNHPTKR

[3] = target: T2, Dual specificity mitogen-activated protein kinase kinase 4 (Homo sapiens) (UniProt P45985); experiment: Selectivity interaction (LanthaScreen Eu Kinase Binding Assay) EUB0001632a MAP2K4; details: at 10 µM
T2 sequence (whole entry): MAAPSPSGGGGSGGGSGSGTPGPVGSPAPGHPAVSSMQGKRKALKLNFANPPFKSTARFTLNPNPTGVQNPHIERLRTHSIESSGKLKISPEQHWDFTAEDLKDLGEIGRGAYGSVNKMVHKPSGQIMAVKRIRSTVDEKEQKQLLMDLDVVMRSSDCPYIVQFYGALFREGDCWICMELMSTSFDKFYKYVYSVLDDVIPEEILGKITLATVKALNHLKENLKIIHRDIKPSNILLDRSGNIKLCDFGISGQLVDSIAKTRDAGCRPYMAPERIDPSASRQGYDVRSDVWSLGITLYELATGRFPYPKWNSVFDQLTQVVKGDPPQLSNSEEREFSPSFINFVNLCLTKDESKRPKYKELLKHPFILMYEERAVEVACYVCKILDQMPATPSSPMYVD

[4] = target: Receptor tyrosine-protein kinase erbB-4 (Homo sapiens, UniProt Q15303); experiment: Selectivity interaction (KinomeScan (DiscoverX)) EUB0001619a ERBB4; details: at 1 µM
Receptor tyrosine-protein kinase erbB-4, sequence (Q15303 whole entry): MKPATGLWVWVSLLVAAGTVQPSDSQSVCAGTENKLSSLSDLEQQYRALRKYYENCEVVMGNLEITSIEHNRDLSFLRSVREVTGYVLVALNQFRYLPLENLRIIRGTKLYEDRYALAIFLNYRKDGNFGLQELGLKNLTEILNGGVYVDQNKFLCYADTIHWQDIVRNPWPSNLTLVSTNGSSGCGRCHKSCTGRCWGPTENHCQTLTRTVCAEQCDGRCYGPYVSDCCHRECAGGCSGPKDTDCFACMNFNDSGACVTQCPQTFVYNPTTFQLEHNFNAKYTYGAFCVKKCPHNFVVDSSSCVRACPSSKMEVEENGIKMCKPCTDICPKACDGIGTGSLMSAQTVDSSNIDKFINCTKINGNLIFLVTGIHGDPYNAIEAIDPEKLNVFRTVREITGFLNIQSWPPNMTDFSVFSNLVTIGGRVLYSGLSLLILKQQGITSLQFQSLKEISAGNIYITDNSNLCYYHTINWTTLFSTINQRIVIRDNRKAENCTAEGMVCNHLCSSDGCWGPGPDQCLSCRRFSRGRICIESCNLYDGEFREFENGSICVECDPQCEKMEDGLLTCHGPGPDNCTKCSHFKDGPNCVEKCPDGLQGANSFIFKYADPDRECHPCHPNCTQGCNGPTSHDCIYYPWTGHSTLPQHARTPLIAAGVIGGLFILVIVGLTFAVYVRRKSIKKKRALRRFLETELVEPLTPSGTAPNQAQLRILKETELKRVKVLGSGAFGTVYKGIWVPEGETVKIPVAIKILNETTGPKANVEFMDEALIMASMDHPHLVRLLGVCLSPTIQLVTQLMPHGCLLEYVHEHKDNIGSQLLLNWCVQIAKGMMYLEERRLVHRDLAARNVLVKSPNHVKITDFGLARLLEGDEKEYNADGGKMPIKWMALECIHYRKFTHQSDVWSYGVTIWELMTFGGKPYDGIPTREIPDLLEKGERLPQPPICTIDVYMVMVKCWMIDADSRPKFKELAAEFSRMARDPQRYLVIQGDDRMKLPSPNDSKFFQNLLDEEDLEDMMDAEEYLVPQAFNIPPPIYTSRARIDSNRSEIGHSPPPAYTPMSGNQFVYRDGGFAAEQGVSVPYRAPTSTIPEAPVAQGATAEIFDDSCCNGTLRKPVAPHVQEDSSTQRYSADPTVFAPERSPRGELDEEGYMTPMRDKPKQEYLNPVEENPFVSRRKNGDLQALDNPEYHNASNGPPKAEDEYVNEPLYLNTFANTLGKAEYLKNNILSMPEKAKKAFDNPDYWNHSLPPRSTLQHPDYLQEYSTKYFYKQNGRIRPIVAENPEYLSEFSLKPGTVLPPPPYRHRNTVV

[5] = target: T3, Interleukin-1 receptor-associated kinase 4 (Homo sapiens) (UniProt Q9NWZ3); experiment: Selectivity interaction (KinomeScan (DiscoverX)) EUB0000607a IRAK4; details: at 10 µM
T3 sequence (whole entry): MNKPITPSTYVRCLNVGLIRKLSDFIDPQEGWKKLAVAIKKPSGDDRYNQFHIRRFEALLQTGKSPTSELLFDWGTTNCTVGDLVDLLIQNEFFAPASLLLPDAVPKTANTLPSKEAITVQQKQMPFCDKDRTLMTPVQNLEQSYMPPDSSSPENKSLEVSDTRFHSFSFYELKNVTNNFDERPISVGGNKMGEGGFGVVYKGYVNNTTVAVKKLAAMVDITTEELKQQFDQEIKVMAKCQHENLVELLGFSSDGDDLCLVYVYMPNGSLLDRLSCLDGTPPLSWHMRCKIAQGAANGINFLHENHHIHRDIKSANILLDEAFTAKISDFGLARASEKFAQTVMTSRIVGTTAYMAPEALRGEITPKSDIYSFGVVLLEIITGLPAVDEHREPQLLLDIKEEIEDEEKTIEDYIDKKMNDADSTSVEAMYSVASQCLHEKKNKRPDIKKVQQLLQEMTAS

[6] = target: Dual specificity tyrosine-phosphorylation-regulated kinase 1A (Homo sapiens, UniProt Q13627); experiment: Selectivity interaction (Kinase panel (DSF assay)) EUB0001558a DYRK1A
[7] = target: T4, Serine/threonine-protein kinase Chk1 (Homo sapiens) (UniProt O14757); experiment: Selectivity interaction (Ambit KINOMEscan and KiNATiv profiling in Jurkat cells) EUB0000090b CHEK1; format: cell-based; details: at 1 µM
T4 sequence (whole entry): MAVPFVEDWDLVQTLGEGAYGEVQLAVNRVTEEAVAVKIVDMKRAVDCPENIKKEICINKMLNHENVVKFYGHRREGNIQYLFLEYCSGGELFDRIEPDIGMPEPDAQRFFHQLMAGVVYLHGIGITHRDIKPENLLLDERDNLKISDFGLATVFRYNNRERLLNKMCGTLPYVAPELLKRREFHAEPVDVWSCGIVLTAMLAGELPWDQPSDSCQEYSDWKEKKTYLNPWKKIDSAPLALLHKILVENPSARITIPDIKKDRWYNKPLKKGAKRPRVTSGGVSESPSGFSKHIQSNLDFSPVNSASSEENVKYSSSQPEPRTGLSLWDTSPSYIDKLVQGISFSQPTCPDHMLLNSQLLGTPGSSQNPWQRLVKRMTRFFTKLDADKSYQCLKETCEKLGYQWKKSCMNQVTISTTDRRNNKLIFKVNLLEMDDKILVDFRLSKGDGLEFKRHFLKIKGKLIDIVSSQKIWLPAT

[8] = target: Ribosomal protein S6 kinase alpha-6 (Homo sapiens, UniProt Q9UK32); experiment: Selectivity interaction (Ambit KINOMEscan and KiNATiv profiling in Jurkat cells) EUB0000090b RPS6KA6; format: cell-based; details: at 1 µM
Ribosomal protein S6 kinase alpha-6, sequence (Q9UK32 whole entry): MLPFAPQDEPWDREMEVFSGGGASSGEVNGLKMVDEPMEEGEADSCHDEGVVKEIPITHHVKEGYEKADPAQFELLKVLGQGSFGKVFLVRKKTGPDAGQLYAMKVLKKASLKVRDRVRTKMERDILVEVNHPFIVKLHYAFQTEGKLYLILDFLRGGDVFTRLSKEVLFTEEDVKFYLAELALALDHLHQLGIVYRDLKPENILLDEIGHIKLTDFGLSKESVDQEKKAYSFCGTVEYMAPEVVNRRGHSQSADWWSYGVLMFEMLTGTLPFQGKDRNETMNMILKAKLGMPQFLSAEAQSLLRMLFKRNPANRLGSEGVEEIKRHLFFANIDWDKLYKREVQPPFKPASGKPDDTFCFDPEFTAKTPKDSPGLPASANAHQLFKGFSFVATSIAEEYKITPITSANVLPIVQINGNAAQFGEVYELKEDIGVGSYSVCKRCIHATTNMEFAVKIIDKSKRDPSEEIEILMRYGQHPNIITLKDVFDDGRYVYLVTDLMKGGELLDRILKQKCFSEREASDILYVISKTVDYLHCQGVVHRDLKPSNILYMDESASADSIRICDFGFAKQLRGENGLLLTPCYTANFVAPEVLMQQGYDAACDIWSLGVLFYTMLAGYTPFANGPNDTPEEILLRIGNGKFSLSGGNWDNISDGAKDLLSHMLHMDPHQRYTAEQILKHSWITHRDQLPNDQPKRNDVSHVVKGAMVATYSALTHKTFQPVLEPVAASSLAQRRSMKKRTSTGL

Casein kinase I isoform gamma-3 (Homo sapiens), sequence (Q9Y6M4 whole entry, looked up, canonical isoform): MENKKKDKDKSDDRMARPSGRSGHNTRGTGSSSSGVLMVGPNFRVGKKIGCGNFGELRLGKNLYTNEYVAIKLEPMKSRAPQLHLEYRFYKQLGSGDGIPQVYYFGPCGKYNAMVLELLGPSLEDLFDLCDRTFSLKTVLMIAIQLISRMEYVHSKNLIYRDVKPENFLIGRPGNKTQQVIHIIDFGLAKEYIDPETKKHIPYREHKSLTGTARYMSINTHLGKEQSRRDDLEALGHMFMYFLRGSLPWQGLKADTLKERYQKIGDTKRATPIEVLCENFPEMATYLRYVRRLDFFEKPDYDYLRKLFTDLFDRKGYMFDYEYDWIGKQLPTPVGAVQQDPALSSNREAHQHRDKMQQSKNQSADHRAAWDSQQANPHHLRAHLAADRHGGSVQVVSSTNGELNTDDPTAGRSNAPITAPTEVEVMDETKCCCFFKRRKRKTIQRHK

**Q.** What does the source list for `C=CC(=O)Nc1cc(-n2c(=O)ccc3cnc4ccc(-c5ccc(NS(C)(=O)=O)cc5)cc4c32)ccc1C`?
**A.** % of control ([1]; at 1 µM): 100%; % of control ([1]; at 10 µM): 84%

**Q.** With `Cc1cc(F)c(C(=O)Nc2cccc(-c3nncn3C(C)C)n2)cc1-n1cnc(C2CC2)c1` as the compound, how does the % of control [2] read?
**A.** The % of control was 84%.

**Q.** How did the % of inhibition [3] turn out when `Cn1cc(-n2cnc3c(NCc4nc5cc(Cl)c(Cl)cc5[nH]4)nc(N4CCOCC4)nc32)cn1` was run?
**A.** The % of inhibition was -62.3%.

**Q.** With `N#Cc1cccc(-c2c[nH]c3ncnc(N4CCOCC4)c23)c1` as the compound, how does the % of control [4] read?
**A.** Its % of control is 100%.

**Q.** `CNC(=O)Nc1ccc(-c2nc(N3CC4CCC(C3)O4)c3cnn(C4CCC5(CC4)OCCO5)c3n2)cc1` was tested. Which % of control [5] did it give?
**A.** Its % of control is 100%.

**Q.** With `CC(C)(O)[C@H](F)CN1Cc2cc(NC(=O)c3cnn4cccnc34)c(N3CCOCC3)cc2C1=O` as the compound, how does the dTM [6] read?
**A.** The dTM was 0.2 K.

**Q.** With `CN(C)C/C=C/C(=O)Nc1ccc(C(=O)N2CCCC(Nc3ncc(Cl)c(-c4c[nH]c5ccccc45)n3)C2)cc1` (centres undefined) as the compound, how does the % of control [7] read?
**A.** Its % of control is 89%.

**Q.** What about the % of control [8] of the same compound?
**A.** Its % of control is 14%.
